The assay has as its system TAC mice. The assay is described as follows: Dobutamine contractile response in TAC and sham mice. The assay is classed as in vivo. The note with it: TAC versus sham mice, 3, 6, 10 ng/BW g. As for the experimental part: TAC mice and sham control. n = 5 (TAC) and n = 3 (sham operated). LVIDd, LV internal diameter during diastole; LVIDs, LV internal diameter during systole; FS, fractional shortening; EF, ejection fraction. (e) SERCA2a protein levels were detected by Western blot analysis. 15 µg of tissue extracts was separated on 7.5% SDS-PAGE gels, transferred to nitrocellulose membrane and blotted with anti-SERCA2a antibody. Band intensity was quantified by Image J software. The amount of GAPDH was used as a normalization control. (f) Dobutamine was infused to test contractile response to β-agonist stimulation in TAC and sham operated animals.
LV pressure rise rate (+dP/dt max) was measured in response to different dose of dobutamine stimulation. Dose-dependent dobutamine response was blunted in TAC animals. n = 3 mice per each dose. Data are represented as mean ± SEM. * p < 0.05 versus baseline (Student’s t-test).

Turning to `CC(CCc1ccc(O)cc1)NCCc1ccc(O)c(O)c1` (centres unmarked) [dobutamine], the “contractile / chronotropic response (+dP/dt max) to dobutamine” value is on record as “significantly abrogated”. Besides, the “contractile / chronotropic response (+dP/dt max) to dobutamine” value (listed as Dobutamine) is given as “blunted”.

The values are drawn from article PMC4467461, “Small-molecule activation of SERCA2a SUMOylation for the treatment of heart failure” (Nature Communications, 2015).
